Measured values from US4927820A, “Fused heterocyclic derivatives of 1,2,3,4-tetrahydroacridine” (priority 1988, dated 1990).

Experiments:
acetylcholinesterase = acetylcholinesterase (Homo sapiens, UniProt P22303); test: Cholinesterase inhibition assay (photometric method of Ellman et al.); format: biochemical
[1] = tested on: scopolamine induced memory deficit in mice; test: Dark Avoidance Assay (reversal of scopolamine induced memory deficit); format: in vivo; conditions: retest 24 hours later
Method: This utility can also be ascertained by determining the ability of these compounds to restore cholinergically deficient memory in the Dark Avoidance Assay. In this assay mice are tested for their ability to remember an unpleasant stimulus for a period of 24 hours. A mouse is placed in a chamber that contains a dark compartment; a strong incadescent light drives it to the dark compartment, where an electric shock is administered through metal plates on the floor. The animal is removed from the testing apparatus and tested again, 24 hours later, for the ability to remember the electric shock.
If scopolamine, an anticholinergic that is known to cause memory impairment, is administered before an animal's initial exposure to the test chamber, the animal re-enters the dark compartment shortly after being placed in the test chamber 24 hours later. This effect of scopolamine is blocked by an active test compound, resulting in a greater interval before re-entry into the dark compartment.
The results for an active compound are expressed as the percent of a group of animals in which the effect of scopolamine is blocked, as manifested by an increased interval between being placed in the test chamber and re-entering the dark compartment.

Chain of acetylcholinesterase (P22303 32-614): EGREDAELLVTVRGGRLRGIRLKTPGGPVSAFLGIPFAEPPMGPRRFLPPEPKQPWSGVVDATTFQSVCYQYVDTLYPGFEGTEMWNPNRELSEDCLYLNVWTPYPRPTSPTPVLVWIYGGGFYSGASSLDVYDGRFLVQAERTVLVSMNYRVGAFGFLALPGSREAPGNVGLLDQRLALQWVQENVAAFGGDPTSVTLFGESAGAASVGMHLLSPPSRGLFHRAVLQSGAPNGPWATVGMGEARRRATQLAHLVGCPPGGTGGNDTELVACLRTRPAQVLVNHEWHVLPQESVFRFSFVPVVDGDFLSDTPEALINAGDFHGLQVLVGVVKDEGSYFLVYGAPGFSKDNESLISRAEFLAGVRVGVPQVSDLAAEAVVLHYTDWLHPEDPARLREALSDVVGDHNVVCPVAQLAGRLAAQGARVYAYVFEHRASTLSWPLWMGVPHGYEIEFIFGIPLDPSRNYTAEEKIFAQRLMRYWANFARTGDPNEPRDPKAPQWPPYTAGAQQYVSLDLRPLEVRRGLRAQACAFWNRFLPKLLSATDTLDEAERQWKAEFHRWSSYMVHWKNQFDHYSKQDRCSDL

## c1ccc(C2Nc3c4c(nc5ccccc35)CCCC4O2)cc1 (stereo not shown) [2-Phenyl-1,2,3a,4,5,6-hexahydro[1,3]oxazino[6,5,4-kl]acridine]
acetylcholinesterase
  IC50: 36 µM
[1]; dose 5.0 mg/kg body weight
  % of animals with scopolamine induced memory deficit reversal: 27%

## CNC(=O)Oc1ccc2c(c1)[C@]1(C)CCN(C)[C@@H]1N2C [Physostigmine, reference compound]
[1]; dose 0.31 mg/kg body weight, reference
  % of animals with scopolamine induced memory deficit reversal: 20%

## Fc1ccc(C2Nc3c4c(nc5ccccc35)CCCC4O2)cc1 (stereo not shown) [2-(4-Fluorophenyl)-1,2,3a,4,5,6-hexahydro[1,3]oxazino[6,5,4-kl]acridine]
acetylcholinesterase
  IC50: 21 µM
